These results are taken from PubChem BioAssay (NCI).

Assay in all cases: growth of human tumour cells (NCI), 48 h
Test [1] relates to A549 NSCLC.
Test [2] relates to SK-MEL-2 melanoma.
The test system of test [3] is RXF 393 renal.
In test [4] the test system is M14 melanoma.
Test [5] deals with CAKI-1 renal.
The test system of test [6] is HL-60(TB) leukemia.
Test [7] deals with NCI-H226 lung.
Test [8] deals with HCC-2998 colon.
The subject of test [9] is SNB-19 CNS.

The structures appear in SMILES notation. Where “and” joins values, the source holds several entries; their conditions need not be identical. Identical values can stand only once.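 In this assay, cells in 96-well plates receive the compound at five concentrations for 48 hours. Endpoints are linearly interpolated between the surrounding concentrations. GI50 is the concentration that inhibits growth by half. TGI: total growth inhibition.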

Consider `CC12OC3CC(O1)C1(C=O)C4CCC5(C)C(c6ccc(=O)oc6)CCC5(O)C4CCC1(C3)O2` (centres undefined), for which the TGI amounted to 0.194 µM in [1]; 0.79 µM in test [2]; 0.256 µM in test [3]; 0.596 µM in test [4]; 0.729 µM in test [5]; 0.474 µM in [6]. The TGI amounted to 1.23 µM in test [7], 2 µM in [8] and 1.78 µM in test [9].
With `O=C(Nc1cc(Cl)c(Cl)cc1Cl)C(=O)C(C(=O)c1ccc2ccccc2c1)C1OC(=O)c2ccccc21` (centres undefined), the TGI turned out to be 81.5 µM in test [1]; 33.8 µM in [2]; 15.1 µM in [3]; 50.7 µM in [4]; 88.1 µM in [6]; 7.13 µM in test [7]. This compound displayed a TGI in test [9] of 33.2 µM.
Turning to `O=C1C2Nc3ccccc3SC2C(=O)N1c1cccc([N+](=O)[O-])c1` (centres undefined), the TGI in test [1], in test [2], in [3], in test [4], in test [5] and in test [6] was over 100 µM each time. Further, the TGI in [7], in [8] and in test [9] was over 100 µM each time.
As to `Cc1cc(C)c2[s+]snc2c1`, the TGI in test [1] is over 100 µM; in test [2] it was over 100 µM; in test [3], 91.6 µM; in test [4], over 100 µM; in [5], over 100 µM; in [6] it was 44.7 µM. For the same compound, the TGI in [7], in test [8] and in test [9] was over 100 µM throughout.
Take `CCc1oc2ccc(OC)c3c2c1C=CC=C3`: the TGI in test [1], in [2], in [3], in test [4], in [6] and in test [7] was over 100 µM each time. Besides, the TGI in test [8] and in test [9] was over 100 µM throughout.
Regarding `CCC[CH2][Sn]1([CH2]CCC)[O]C(=O)c2cc(C)ccc2[O]1`, the GI50 in test [1] was 1.92 µM; in [2] it was 0.303 µM; in [3] it was 0.283 µM; in [4], 0.342 µM; in test [5], 0.169 µM; in [6], 0.164 µM. Besides, the GI50 was 1.85 µM in test [7], 0.67 µM in [8] and 0.7 µM in test [9]. Further, the TGI in test [1] amounted to 3.32 µM; in [2] it was 0.808 µM; in test [3], 0.555 µM; in test [4], 1.5 µM; in test [5], 0.785 µM; in test [6] it was 0.444 µM. Besides, the values for the TGI in test [7], in [8] and in test [9] were 3.37 µM, 1.98 µM and 1.93 µM, respectively.
In the case of `CC(C)c1cccc(C(C)C)c1NC1=CC(=O)C(=O)c2ccccc21`, the TGI in test [1], in test [2], in test [3], in test [4], in test [5] and in test [6] was over 100 µM throughout. The TGI in [7], in test [8] and in [9] was over 100 µM in each case.
As to `CC(C)[O-].CC(C)[O-].[O-]c1cccc2cccnc12.[O-]c1cccc2cccnc12.[Ti+4]`, the GI50 in test [1] was 41.7 µM; in test [2], 31.3 µM; in test [3] it was 2.42 µM; in test [4], 9.68 µM and 10.8 µM; in test [6] it was 2.24 µM; in [7], over 100 µM. Moreover, the GI50 in [8] is 50.4 µM; in test [9], 61.6 µM. Further, the TGI in test [1] was over 100 µM; in test [2] it was over 100 µM; in [3] it was 6.04 µM; in [4], over 100 µM; in test [5], over 100 µM; in test [7] it was over 100 µM. Further, the TGI in test [8] and in test [9] was over 100 µM each time.
`OC1C2C=CCC1CCC2` (centres undefined): the TGI in test [1], in test [2], in [3], in test [4], in [5] and in test [6] was over 100 µM each time. Besides, the TGI in test [7] and in [9] was over 100 µM throughout.
Take `CCOC(=O)CNC(=O)C(CSC(=O)N(C)O)NC(=O)CCC(N)C(=O)O` (centres undefined): the GI50 in test [1], in test [2], in test [3], in test [4], in [5] and in [6] was over 2000 µM throughout. In addition, the GI50 in test [7] and in test [9] was over 2000 µM in each case. Moreover, the TGI in [1], in test [2], in [3], in test [4], in [5] and in test [6] was over 2000 µM each time. Besides, the TGI in [7] and in test [9] was over 2000 µM in each case.
For `C[C@]12CCCC(=O)C1C[C@H](C(=O)O)CC2` (some centres undefined), the TGI in [1], in [2], in [4], in [5], in test [6] and in [7] was over 100 µM throughout. For the same compound, the TGI in [8] and in test [9] was over 100 µM throughout.
Turning to `CCOC(=O)C1CC/C(=C(/C#N)C(=O)OC)N1` (centres undefined), the TGI in test [1], in test [2], in test [3], in test [4], in [5] and in [6] was over 100 µM throughout. For the same compound, the TGI in test [8] and in test [9] was over 100 µM throughout.
With `O=C1c2ccccc2C(=O)c2sc(Nc3ccc(Cl)c(Cl)c3)nc21`, the TGI in test [1] was 54.5 µM; in test [2] it was 33.2 µM; in test [3] it was 12.4 µM; in test [4], 9.86 µM; in test [5] it was 8.83 µM; in test [6], 1.18 µM. Further, the TGI in test [7] worked out at 16.2 µM; in test [8] it was 29.3 µM; in test [9], 32.9 µM.
